Laboratory results published in patent US20100303916A1, “ENHANCED DRUG DELIVERY WITH ORIENTABLE PARTICLES” (THE GOVERNORS OF THE UNIVERSITY OF ALBERTA, priority 2007, published 2010).

Assay: Aerosol particle size distribution and number concentration by SEM
Format: physicochemical
Settings: mean ± SD, n = 9 SEM images
Protocol: The particle size distribution and number concentration of the CA and CA/magnetite aerosols were determined from samples taken from the delivery apparatus used for the aerosol deposition experiments. Suspensions of CA and CA/magnetite were nebulized, and drawn by vacuum pump along with ambient, drying air at 10 l/min. into a large volume (˜16 1) delivery chamber for 1.5 minutes. With reference to FIG. 5, after filling the delivery chamber 40 with aerosol, valves 46, 48 connecting to the nebulizer 42 and the vacuum pump 44, respectively, were closed, and a butterfly valve 50 at the base 52 of the chamber 40 was opened. Aerosol was then sampled from the base 52 of the chamber 40 onto a 0.2 μm pore polycarbonate membrane (Isopore GTTP04700; Millipore, Billerica, Mass., not shown) for 1 hour at a flow rate of 0.21 l/min., maintained through the delivery chamber using dry, compressed air and a needle valve, and monitored using a low flow rate rotameter (FL-2010; OMEGA Canada, Laval, QC). Over the period of the sampling, the needle valve was adjusted as required to hold the flow rate to within 0.21±0.02 l/min.
After collecting aerosol from the delivery chamber, samples of the polycarbonate membranes were prepared for analysis by scanning electron microscopy (SEM) (S-2500; Hitachi, Japan). For both the CA and CA/magnetite aerosols, three pieces were cut from the membrane, from locations chosen at random, and mounted to SEM stubs using two-sided carbon adhesive tabs. These samples were sputter coated with a thin layer of gold prior to SEM analysis. Images of the samples were taken at 3000× magnification, again from locations chosen at random, and stored digitally.
For three SEM images from each of the three membrane samples, the length and diameter of each particle was manually measured using digital image analysis software (Scion Image; Scion Corporation, Frederick, Md.). The particles were assumed to lie parallel to the face of the membrane. Particle sizing rules were similar to those established for asbestos samples by Platek et al. (1992). Each particle was marked immediately after being sized so as to avoid sizing the same particle twice. Where a particle was not perfectly straight, its length was measured as the arc length along its central axis from one tip to the other. Diameter was measured perpendicular to the central axis at the midpoint along a particle's length, except in rare cases where the particle had two regions of clearly different diameter. In these latter cases, an average of the two diameters was taken. Overlapping particles were sized separately only if both ends of each particle were clearly visible.
After sizing, the volume of each particle was calculated, under the approximation that the particles were cylindrical. Volume-weighted size distributions were then fit with lognormal curves by nonlinear regression to yield a volume median length (VML), volume median diameter (VMD), and geometric standard deviations in both length and diameter (σL and σD), respectively) for each SEM image. In addition, the particle number concentration in the sampled air was calculated for each image from the volume of sampled air, and the ratio between the image area and the total area of the membrane exposed to the aerosol. The mean values of these parameters for the three different membrane samples were compared by one-way ANOVA for independent samples in order to gauge their variation over different locations on the membrane.

VMD (volume median diameter) (aerosol sampled from delivery chamber): 0.34 ± 0.02 μm
N (number of particles per unit volume of sampled air): (2.0 ± 0.3) × 10^4 cm^−3
VML (volume median length): 2.0 ± 0.4 μm
σD (geometric standard deviation for diameter): 1.5 ± 0.1
σL (geometric standard deviation for length): 2.1 ± 0.1
SMILES: O=C(O)c1cc(=O)c2c(OCC(O)COc3cccc4oc(C(=O)O)cc(=O)c34)cccc2o1 [CA, cromoglycic acid]
